Data: patent publication US10300060B2, “Trk-inhibiting compound” (ONO PHARMACEUTICAL CO., LTD., priority 2013, dated 2019)

Assays:
b-Raf = b-Raf (Homo sapiens (Human), UniProt P15056); assay: Enzyme-inhibiting activity test of kinases other than Trk (selectivity experiment): b-Raf; assay type: biochemical; conditions: concentration of 3 μM; read-out: Inhibition rate (%) b-Raf
Experimental: (§1) A test substance (the present compound) was dissolved in dimethylsulfoxide to prepare a 100-fold concentration of the test concentration, 3 μM. The solution was further diluted to 25-fold with an assay buffer (20 mM HEPES, 0.01% Triton X-100, 2 mM DTT, pH 7.5) to obtain a test substance solution. In a similar manner a positive control substance solution was prepared with a positive control substance.
(§2) A 4-times concentration solution (5 μL) of the test substance prepared with the assay buffer, 5 μL of a 4-times concentration solution of substrate/ATP/metal (Mg) and 10 μL of a 2-times concentration solution of kinase were mixed in a well of a polypropylene 384-well plate and allowed to react at room temperature for 1 hour. The reaction was terminated by adding 60 μL of a Termination Buffer (QuickScout Screening Assist MSA; Carna Biosciences). The substrate peptide and the phosphorylated peptide in the reaction solution were separated and quantified. The kinase reaction was assessed from the product ratio (P/(P+S)) calculated from the height (S) of the peak of the substrate peptide and the height (P) of the peak of the phosphorylated peptide. Other kinases used in the kinase selectivity experiments were, for example, b-Raf and KDR. The following Table 3 indicates substrates, substrate concentrations, ATP concentrations and positive control substances used in respective kinase enzyme inhibition activity tests.

KDR = KDR (Homo sapiens (Human), UniProt P35968); assay: Enzyme-inhibiting activity test of kinases other than Trk (selectivity experiment): KDR; assay type: biochemical; conditions: concentration of 3 μM; read-out: Inhibition rate (%) KDR
KDR, sequence (P35968 20-1356, species assumed): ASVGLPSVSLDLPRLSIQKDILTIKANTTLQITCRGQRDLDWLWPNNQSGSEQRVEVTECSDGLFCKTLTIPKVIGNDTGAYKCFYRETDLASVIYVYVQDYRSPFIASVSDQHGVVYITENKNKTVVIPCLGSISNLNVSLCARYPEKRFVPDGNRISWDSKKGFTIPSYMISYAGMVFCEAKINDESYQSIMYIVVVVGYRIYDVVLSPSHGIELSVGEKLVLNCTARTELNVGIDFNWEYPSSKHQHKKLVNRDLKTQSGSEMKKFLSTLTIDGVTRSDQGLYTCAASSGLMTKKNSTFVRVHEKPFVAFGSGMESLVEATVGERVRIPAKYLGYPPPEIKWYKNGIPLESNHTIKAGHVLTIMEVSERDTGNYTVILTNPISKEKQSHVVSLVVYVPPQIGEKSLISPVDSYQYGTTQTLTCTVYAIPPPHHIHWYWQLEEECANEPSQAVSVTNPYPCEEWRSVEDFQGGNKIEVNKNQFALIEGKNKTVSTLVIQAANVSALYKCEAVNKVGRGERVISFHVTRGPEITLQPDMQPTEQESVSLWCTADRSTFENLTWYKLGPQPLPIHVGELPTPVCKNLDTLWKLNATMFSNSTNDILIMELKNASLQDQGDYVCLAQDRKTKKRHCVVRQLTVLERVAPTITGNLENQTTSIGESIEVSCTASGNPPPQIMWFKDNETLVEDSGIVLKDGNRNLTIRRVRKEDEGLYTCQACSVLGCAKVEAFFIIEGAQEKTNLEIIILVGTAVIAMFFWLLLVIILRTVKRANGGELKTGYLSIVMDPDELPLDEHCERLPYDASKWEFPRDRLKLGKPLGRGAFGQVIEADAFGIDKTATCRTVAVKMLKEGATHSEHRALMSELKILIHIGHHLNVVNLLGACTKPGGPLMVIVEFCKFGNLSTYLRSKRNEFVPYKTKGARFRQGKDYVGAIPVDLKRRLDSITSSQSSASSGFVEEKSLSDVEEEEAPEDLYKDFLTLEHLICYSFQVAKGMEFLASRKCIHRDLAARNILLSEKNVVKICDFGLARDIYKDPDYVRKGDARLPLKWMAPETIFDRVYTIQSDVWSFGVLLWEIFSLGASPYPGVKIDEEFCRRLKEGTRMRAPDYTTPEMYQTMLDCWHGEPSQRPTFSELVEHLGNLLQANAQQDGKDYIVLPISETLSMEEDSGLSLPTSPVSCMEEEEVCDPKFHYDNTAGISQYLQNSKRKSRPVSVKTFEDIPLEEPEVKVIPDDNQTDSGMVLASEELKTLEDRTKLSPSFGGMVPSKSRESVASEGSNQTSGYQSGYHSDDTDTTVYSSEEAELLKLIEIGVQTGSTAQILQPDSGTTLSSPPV
Experimental: as §1, §2

b-Raf, sequence (P15056 whole entry, species assumed): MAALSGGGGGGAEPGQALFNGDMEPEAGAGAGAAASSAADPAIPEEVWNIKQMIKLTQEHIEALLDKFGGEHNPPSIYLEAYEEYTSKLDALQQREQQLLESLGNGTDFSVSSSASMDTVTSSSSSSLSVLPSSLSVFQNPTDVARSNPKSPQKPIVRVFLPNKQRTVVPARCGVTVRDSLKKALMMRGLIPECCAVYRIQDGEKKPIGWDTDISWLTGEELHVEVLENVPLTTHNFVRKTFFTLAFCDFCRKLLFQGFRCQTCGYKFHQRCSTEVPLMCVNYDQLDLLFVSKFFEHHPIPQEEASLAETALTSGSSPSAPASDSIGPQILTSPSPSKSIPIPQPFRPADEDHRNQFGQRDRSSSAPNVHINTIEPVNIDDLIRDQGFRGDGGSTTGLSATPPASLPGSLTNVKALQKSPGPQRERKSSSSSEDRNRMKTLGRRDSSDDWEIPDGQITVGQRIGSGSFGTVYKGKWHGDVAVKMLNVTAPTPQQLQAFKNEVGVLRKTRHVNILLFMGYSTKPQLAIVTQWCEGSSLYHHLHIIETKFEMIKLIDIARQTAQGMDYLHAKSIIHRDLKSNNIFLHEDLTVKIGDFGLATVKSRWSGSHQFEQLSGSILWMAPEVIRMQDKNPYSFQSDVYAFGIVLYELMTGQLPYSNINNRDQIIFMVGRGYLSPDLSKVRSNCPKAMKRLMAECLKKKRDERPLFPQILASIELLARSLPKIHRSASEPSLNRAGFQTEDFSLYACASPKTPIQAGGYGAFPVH

inhibition at 3 µM (b-Raf)	inhibition at 3 µM (KDR)	Compound
21%	0%	Nc1ncc(Cl)cc1-c1ccc(Oc2ncc(NC(=O)Nc3cc(C(F)(F)F)ccc3-n3ccc(C(F)(F)F)n3)cn2)cc1 [Example 8-2, 1-(2-(4-(2-amino-5-chloropyridin-3-yl)phenoxy)pyrimidin-5-yl)-3-(5-(trifluoromethyl)-2-(3-(trifluoromethyl)-1H-pyrazol-1-yl)phenyl)urea]
33%	7.5%	Cn1nccc1-c1ccc(C(F)(F)F)cc1NC(=O)Nc1cnc(Oc2ccc(-c3cc(Cl)cnc3N)cc2)nc1 [Example 13-1, 1-(2-(4-(2-amino-5-chloropyridin-3-yl)phenoxy)pyrimidin-5-yl)-3-(2-(1-methyl-1H-pyrazol-5-yl)-5-(trifluoromethyl)phenyl)urea]
0%	0%	Nc1ncc(Cl)cc1-c1ccc(Oc2ncc(NC(=O)Nc3ccc(C(F)(F)F)cc3-n3cccn3)cn2)cc1 [Example 15-4, 1-(2-(1H-pyrazol-1-yl)-4-(trifluoromethyl)phenyl)-3-(2-(4-(2-amino-5-chloropyridin-3-yl)phenoxy)pyrimidin-5-yl)urea]
30%	0%	Nc1ncc(F)cc1-c1ccc(Oc2ncc(NC(=O)Nc3cc(C(F)(F)F)ccc3-c3ccccc3)cn2)cc1 [Example 15-58, 1-{2-[4-(2-amino-5-fluoro-3-pyridinyl)phenoxy]-5-pyrimidinyl}-3-[4-(trifluoromethyl)-2-biphenylyl]urea]
40%	0%	Nc1ncc(Cl)cc1-c1ccc(Oc2ncc(NC(=O)Nc3cc(Cl)ccc3-n3ccc(C(F)(F)F)n3)cn2)cc1 [Example 15-71, 1-{2-[4-(2-amino-5-chloro-3-pyridinyl)phenoxy]-5-pyrimidinyl}-3-{5-chloro-2-[3-(trifluoromethyl)-1H-pyrazol-1-yl]phenyl}urea]
22%	2%	CS(=O)(=O)c1ccc(C(F)(F)F)cc1NC(=O)Nc1cnc(Oc2ccc(-c3cc(F)cnc3N)cc2)nc1 [Example 15-96, 1-{2-[4-(2-amino-5-fluoro-3-pyridinyl)phenoxy]-5-pyrimidinyl}-3-[2-(methylsulfonyl)-5-(trifluoromethyl)phenyl]urea]
26%	0%	CN(C)S(=O)(=O)c1ccc(C(F)(F)F)cc1NC(=O)Nc1cnc(Oc2ccc(-c3cc(C(F)(F)F)cnc3N)cc2)nc1 [Example 15-105, 2-{[(2-{4-[2-amino-5-(trifluoromethyl)-3-pyridinyl]phenoxyl}-5-pyrimidinyl)carbamoyl]amino}-N,N-dimethyl-4-(trifluoromethyl)benzenesulfonamide]
36%	1.5%	O=C(Nc1cnc(Oc2ccc(-c3cnn4ccc(N5CCC5)nc34)cc2)nc1)Nc1cc(C(F)(F)F)ccc1-c1cccnc1 [Example 21-1, 1-(2-(4-(5-(azetidin-1-yl)pyrazolo[1,5-a]pyrimidin-3-yl)phenoxy)pyrimidin-5-yl)-3-(2-(pyridin-3-yl)-5-(trifluoromethyl)phenyl)urea]
30%	1%	Cn1nccc1-c1ccc(C(F)(F)F)cc1NC(=O)Nc1cnc(Oc2ccc(-c3cnn4ccc(N5CCC5)nc34)cc2)nc1 [Example 21-2, 1-(2-(4-(5-(azetidin-1-yl)pyrazolo[1,5-a]pyrimidin-3-yl)phenoxy)pyrimidin-5-yl)-3-(2-(1-methyl-1H-pyrazol-5-yl)-5-(trifluoromethyl)phenyl)urea]
58%	19%	Cc1ccn2ncc(-c3ccc(Oc4ncc(NC(=O)Nc5cc(C(F)(F)F)ccc5-c5cccnc5)cn4)cc3)c2n1 [Example 21-65, 1-{2-[4-(5-methylpyrazolo[1,5-a]pyrimidin-3-yl)phenoxy]-5-pyrimidinyl}-3-[2-(3-pyridinyl)-5-(trifluoromethyl)phenyl]urea]
